Assays:
[1] = system: mitochondria in HeLa cells; experiment: Colocalization test of SiR-Mito probes with MitoTracker green in HeLa cells; type: cell-based, human; settings: 1 μM probe, 1 h
Protocol: HeLa cells were incubated with cell culture media containing 1 μM SiR-Mito probe, and 0.5 μM MitoTracker green. After 1 h, HeLa cells were washed three times with 1×PBS for and observed with a LEICA DMi8 fluorescent microscope. Each experiment was observed using 512-542 nm emitter for FITC channel (for MitoTracker Green), and 663-738 nm exciter, 545-625 nm emitter for Cy5 channel (for SiR-Mito probes). Scale bar: 50 μm.
HeLa human cervical cancer cells were cultured in Dulbecco's modified eagle media (DMEM, GIBCO) containing 10% fetal bovine serum (FBS, GIBCO) and 1% penicillin (GIBCO) at 37° C. in a humidified incubator with 5% CO2. For the fluorescence microscope imaging, cells were harvested using TrypLE™ Express (GIBCO) and resuspended in fresh culture medium. Harvested cells with a density of 4.0×10^3 cells/well were seeded on a HeLa 96 black well plate (CORNING) and incubated for 24 h. Cells were incubated with SiR-Mito probes (1 μM) and MitoTracker Green (0.5 μM) for 60 min. After the incubation, cells were washed with 1×PBS for three times and observed with inverted fluorescence microscope (DMi8, LEICA). Each experiment was observed using a 325-375 nm exciter, 435-485 nm emitter for DAPI channel, 460-500 nm exciter, 512-542 nm emitter for FITC channel, 541-551 nm exciter, 565-605 nm emitter for Rhodamine channel, and 663-738 nm exciter, 545-625 nm emitter for Cy5 channel.
To determine the effect of probe hydrophobicity on the efficiency of targeting to mitochondria, the Pearson coefficient for colocalization of SiR-Mito probes and MitoTracker green, a commercial fluorescent mitochondrial bioprobe, was measured (FIG. 1). For the colocalization test, human cervical cancer HeLa cells were seeded on 96-well plates and incubated for 1 h with 1 μM of each different SiR-Mito probe and 0.5 μM MitoTracker green, washed briefly with 1×PBS, and imaged with a LEICA DMi8 fluorescent microscope using the 40× objective.

[2] = system: Hep3B liver cancer cells vs L02 or Chang normal liver cells; experiment: Comparison of fluorescence intensity between normal cells and cancer cells; type: cell-based, human; settings: 1 μM, 1 h
Protocol: (a) Cells were incubated with full growth media containing SiR-Mito 8 (1 μM) and Hoechst dye (0.01 μg/ml) for 1 h. The cells were washed 3 times with growth media and observed with a LEICA DMi8 fluorescent microscope. […] (b) Quantification of the fluorescence intensity of SiR-Mito 8 in L02, Chang liver and in Hep3B cells. Scale bar: 50 μm.
Therefore, the present inventors envisioned that SiR-Mito 8 could differentiate cancer cells from normal cells without involving ligand conjugation. For fluorescent tumor imaging, human liver cancer Hep3B cells and the human hepatocyte line L02 were incubated with 1.0 μM SiR-Mito 8 for 1 hour, washed three times with cell growth media, and imaged using a LEICA DMi8 fluorescence microscope.
Specifically, Hep3B human liver cancer cells were cultured in Dulbecco's modified eagle media (DMEM, GIBCO) containing 10% fetal bovine serum (FBS, GIBCO) and 1% penicillin (GIBCO), and L02 or Chang human liver normal cells were cultured in Roswell Park Memorial Institute (RPMI, CAPRICORN) 1640 with L-Glutamine containing 10% FBS (GIBCO) and 1% Penicillin (HyClone) at 37° C. in a humidified incubator with 5% CO2. For the fluorescence microscope imaging, cells were harvested using TrypLE™ Express (GIBCO) and resuspended in fresh culture medium. […] Cells were washed with cell culture media for three times and observed with inverted fluorescence microscope (DMi8, LEICA).

N-(10-(5-((cyclooctylmethyl) carbamoyl)-2-methylphenyl)-7-(dimethylamino)-5,5-dimethyldibenzo[b,e]silin-3(5H)-ylidene)-N-methylmethanaminium [SiR-Mito 8]
Mitochondria Targeting (Pearson coefficient for colocalization with MitoTracker green) ([1]; 0.5 μM MitoTracker green): *** (*** 0.9 ≤ R) | Pearson coefficient for colocalization with MitoTracker green ([1]; 0.5 μM MitoTracker green): highest | Intracellular fluorescence (SiR channel) [1]: strongest | Fluorescence intensity in cancer cells versus normal cells [2]: higher fluorescence intensity than normal cells

Reference: patent US11761894B2, “Silicon-rhodamine fluorescent probe containing hydrophobic group and use thereof” (AJOU UNIVERSITY INDUSTRY—ACADEMIC COOPERATION FOUNDATION, priority 2019, dated 2023)
